What was measured:
[1] = system: normal NK cells expanded with K562-aAPC; assay: percent inhibition of viability; higher = more inhibition; settings: 72 h, IL-2 2.5 ng/mL
Description: (§1)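 Drug sensitivity and resistance testing on K562-aAPC-expanded normal NK cells: 5 concentrations (10-fold steps over a 10,000-fold range), 72 h at 37 °C, viability by CellTiter-Glo normalised to DMSO and benzethonium chloride controls; DSS from the fitted curve.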

[2] = system: normal primary NK cells, pool 1 (3 donors) (IL-2 2.5 ng/mL); assay: drug sensitivity score (DSS) (DSS units); higher = more sensitive; extreme values may be limits of the assay; settings: 72 h
NK-92 (IL-2 2.5 ng/mL) [3] = assay: as above; settings: 72 h
IMC-1 (IL-2 20 ng/mL) [4] = assay: as above; settings: 72 h
DERL-7 (IL-2 2.5 ng/mL) [5] = assay: as above; settings: 72 h
SNK-6 (IL-2 2.5 ng/mL) [6] = assay: as above; settings: 72 h
[7] = system: normal primary NK cells, pool 3 (3 donors) (IL-2 2.5 ng/mL); assay: as above; settings: 72 h
KAI3 (IL-2 2.5 ng/mL) [8] = assay: as above; settings: 72 h
NK-YS (IL-2 2.5 ng/mL) [9] = assay: as above; settings: 72 h
[10] = system: normal primary NK cells, pool 1 (3 donors), resting (IL-2 0 ng/mL); assay: as above; settings: 72 h
NKL (IL-2 2.5 ng/mL) [11] = assay: as above; settings: 72 h
YT (IL-2 2.5 ng/mL) [12] = assay: as above; settings: 72 h
KHYG-1 (IL-2 2.5 ng/mL) [13] = assay: as above; settings: 72 h
[14] = system: normal primary NK cells, pool 2 (3 donors) (IL-2 2.5 ng/mL); assay: as above; settings: 72 h
[15] = system: normal primary NK cells, pool 1 (3 donors) (IL-2 2.5 ng/mL); assay: percent inhibition of viability; higher = more inhibition; settings: 72 h
NK-92 (IL-2 2.5 ng/mL) [16] = assay: as above; settings: 72 h
IMC-1 (IL-2 20 ng/mL) [17] = assay: as above; settings: 72 h
DERL-7 (IL-2 2.5 ng/mL) [18] = assay: as above; settings: 72 h
SNK-6 (IL-2 2.5 ng/mL) [19] = assay: as above; settings: 72 h
[20] = system: normal primary NK cells, pool 3 (3 donors) (IL-2 2.5 ng/mL); assay: as above; settings: 72 h
KAI3 (IL-2 2.5 ng/mL) [21] = assay: as above; settings: 72 h
NK-YS (IL-2 2.5 ng/mL) [22] = assay: as above; settings: 72 h
[23] = system: normal primary NK cells, pool 1 (3 donors), resting (IL-2 0 ng/mL); assay: as above; settings: 72 h
NKL (IL-2 2.5 ng/mL) [24] = assay: as above; settings: 72 h
YT (IL-2 2.5 ng/mL) [25] = assay: as above; settings: 72 h
KHYG-1 (IL-2 2.5 ng/mL) [26] = assay: as above; settings: 72 h
[27] = system: normal primary NK cells, pool 2 (3 donors) (IL-2 2.5 ng/mL); assay: as above; settings: 72 h
[28] = system: normal NK cells expanded with K562-aAPC; assay: drug sensitivity score (DSS) (DSS units); higher = more sensitive; extreme values may be limits of the assay; settings: 72 h; IL-2 2.5 ng/mL
Description: as §1

Cn1cnc2c(F)c(Nc3ccc(Br)cc3Cl)c(C(=O)NOCCO)cc21 [Selumetinib] (max concentration tested 10000 nM)
percent inhibition of viability [%]
Settings	1 nM	10 nM	100 nM	1000 nM	10000 nM
DERL-7 (IL-2 2.5 ng/mL) [18]	-4.06	8.89	24.4	38.2	51.5
IMC-1 (IL-2 20 ng/mL) [17]	-12.4	-11.4	-5.26	-4.59	17.3
KAI3 (IL-2 2.5 ng/mL) [21]	6.76	0.73	4.04	12.1	29.3
KHYG-1 (IL-2 2.5 ng/mL) [26]	1.06	-1.54	13.7	34.2	61.1
NK-92 (IL-2 2.5 ng/mL) [16]	2.8	1.89	-10.2	-8.53	36.1
NK-YS (IL-2 2.5 ng/mL) [22]	5.92	-5.87	0.1	1.88	27.9
NKL (IL-2 2.5 ng/mL) [24]	-4.4	-0.32	26.8	39	72.7
SNK-6 (IL-2 2.5 ng/mL) [19]	-18.1	-10.6	-25.8	-31.2	-26.9
YT (IL-2 2.5 ng/mL) [25]	2.15	-4.23	-5.27	-0.32	16.7
[1]	-5.33	-3.66	-3.4	-0.06	16.8
[15]	-4.68	-3.55	18.9	23.4	19.1
[20]	-5.55	-8.58	-1.51	-0.3	13.4
[23]	-1.79	-0.33	21.2	18.2	16.7
[27]	-9.3	-7.88	3.43	19.3	18.2

Settings	drug sensitivity score
DERL-7 (IL-2 2.5 ng/mL) [5]	10.2
IMC-1 (IL-2 20 ng/mL) [4]	0.24
KAI3 (IL-2 2.5 ng/mL) [8]	2.27
KHYG-1 (IL-2 2.5 ng/mL) [13]	7.98
NK-92 (IL-2 2.5 ng/mL) [3]	1.3
NK-YS (IL-2 2.5 ng/mL) [9]	1.42
NKL (IL-2 2.5 ng/mL) [11]	10.8
SNK-6 (IL-2 2.5 ng/mL) [6]	0
YT (IL-2 2.5 ng/mL) [12]	0.33
[2]	5.53
[7]	0.11
[10]	5.28
[14]	2.98
[28]	0.36

COc1cc(Nc2ncc(F)c(Nc3ccc4c(n3)NC(=O)C(C)(C)O4)n2)cc(OC)c1OC [Tamatinib] (max concentration tested 10000 nM)
percent inhibition of viability [%]
Settings	1 nM	10 nM	100 nM	1000 nM	10000 nM
DERL-7 (IL-2 2.5 ng/mL) [18]	-3.21	-4.44	-1.63	29.5	38.5
IMC-1 (IL-2 20 ng/mL) [17]	-4.81	-0.95	-11	-15.5	56.1
KAI3 (IL-2 2.5 ng/mL) [21]	4.14	8.73	12.3	52.5	82.4
KHYG-1 (IL-2 2.5 ng/mL) [26]	1.54	-0.18	6.88	36	99.6
NK-92 (IL-2 2.5 ng/mL) [16]	-17.2	-0.02	-13.7	11	90.4
NK-YS (IL-2 2.5 ng/mL) [22]	-3.68	-3.13	-0.99	12.5	56.2
NKL (IL-2 2.5 ng/mL) [24]	-1.49	-0.26	2.39	34.2	68.3
SNK-6 (IL-2 2.5 ng/mL) [19]	2.85	9.06	-0.26	-7.25	83
YT (IL-2 2.5 ng/mL) [25]	2.46	0.67	2.31	5.93	82.7
[1]	0.12	1.7	1.14	27.4	36.2
[15]	-10.3	-6.76	7.45	9.38	25.4
[20]	-10.4	-5.15	-13.3	2.62	54.5
[23]	-31.4	-30.1	-18.1	-11	-3.1
[27]	-10	-7.66	-17.3	5.93	49.9

Settings	drug sensitivity score
DERL-7 (IL-2 2.5 ng/mL) [5]	5.34
IMC-1 (IL-2 20 ng/mL) [4]	2.27
KAI3 (IL-2 2.5 ng/mL) [8]	11.7
KHYG-1 (IL-2 2.5 ng/mL) [13]	9.92
NK-92 (IL-2 2.5 ng/mL) [3]	6.83
NK-YS (IL-2 2.5 ng/mL) [9]	5.03
NKL (IL-2 2.5 ng/mL) [11]	7.84
SNK-6 (IL-2 2.5 ng/mL) [6]	4.09
YT (IL-2 2.5 ng/mL) [12]	5.49
[2]	1.62
[7]	3.27
[10]	0
[14]	3.61
[28]	5

CNC(=O)c1cccc2cc(Oc3ccnc4cc(OCC5(N)CC5)c(OC)cc34)ccc12 [Lucitanib] (max concentration tested 10000 nM)
percent inhibition of viability [%]
Settings	1 nM	10 nM	100 nM	1000 nM	10000 nM
DERL-7 (IL-2 2.5 ng/mL) [18]	-0.32	-4.66	2.4	-2.57	23.4
IMC-1 (IL-2 20 ng/mL) [17]	-4.99	1.11	1.41	2.72	0.85
KAI3 (IL-2 2.5 ng/mL) [21]	-0.3	-0.75	-0.45	11.7	49.6
KHYG-1 (IL-2 2.5 ng/mL) [26]	-3.19	-3.91	-0.83	10.4	70.4
NK-92 (IL-2 2.5 ng/mL) [16]	-12.1	-11.8	3.06	13.7	83.8
NK-YS (IL-2 2.5 ng/mL) [22]	-6.67	-4.7	-0.96	9.75	65.5
NKL (IL-2 2.5 ng/mL) [24]	1.05	4.31	4.24	-3.6	3.06
SNK-6 (IL-2 2.5 ng/mL) [19]	-7.37	-13.2	-13.8	-8.69	69.6
YT (IL-2 2.5 ng/mL) [25]	-5.87	-7.33	-6.32	-2.96	58.7
[1]	-5.59	-4.77	-3.52	4.7	23.6
[15]	-6.86	10.5	-2.99	8.01	5.53
[20]	-7.6	0.39	3.76	-6.23	-5.45
[23]	-16.7	4.29	3.09	0.61	22.1
[27]	-3.78	2.2	2.46	-3.23	-5

Settings	drug sensitivity score
DERL-7 (IL-2 2.5 ng/mL) [5]	0.68
IMC-1 (IL-2 20 ng/mL) [4]	0
KAI3 (IL-2 2.5 ng/mL) [8]	4.47
KHYG-1 (IL-2 2.5 ng/mL) [13]	5.63
NK-92 (IL-2 2.5 ng/mL) [3]	6.93
NK-YS (IL-2 2.5 ng/mL) [9]	5.23
NKL (IL-2 2.5 ng/mL) [11]	0
SNK-6 (IL-2 2.5 ng/mL) [6]	3.25
YT (IL-2 2.5 ng/mL) [12]	2.92
[2]	0
[7]	0
[10]	0.81
[14]	0
[28]	1.53

— the supplement of paper PMC5908809
